PubChem BioAssay AID270 (DTP/NCI, 2004)
Inconclusive results are not listed.

Tested on: BDF1 mice, s.c. Lewis lung carcinoma, T/C %
Experiment: NCI In Vivo Anticancer Drug Screen. Data for tumor model Lewis Lung Carcinoma (subcutaneous) in B6D2F1 (BDF1) mice
Procedure, shortened: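 First, mice carry a transplantable tumor. Next, groups receive either compound or vehicle. Finally, survival or tumor dimensions in the dosed animals are divided by the corresponding control figure.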

In the case of `CC(=O)C1=C(O)C2(C)c3c(O)c(C)c(O)c(C(C)=O)c3OC2(Sc2ccccc2)CC1=O` (stereo unspecified), the T/C (endpoint: median survival time, dose: 6.25 mg/kg/injection, schedule: Q01DX009 (ip), vehicle: gum acacia, higher = longer survival) is reported as 101 % of control, the T/C (endpoint: median survival time, dose: 25.0 mg/kg/injection, schedule: Q01DX009 (ip), vehicle: gum acacia, higher = longer survival) is reported as 101 % of control and the T/C (endpoint: median survival time, dose: 50.0 mg/kg/injection, schedule: Q01DX009 (ip), vehicle: gum acacia, higher = longer survival) is reported as 97 % of control.

In the case of `CC1CCC2C(C)C3C(CC4C5CC=C6CC(OC7OC(CO)C(O)C(OC8OC(CO)C(O)C(O)C8O)C7OC7OC(C)C(O)C(O)C7O)CCC6(C)C5CCC43C)N2C1` (stereo unspecified), the T/C (endpoint: mean tumor weight, dose: 54.0 mg/kg/injection, schedule: Q01DX011 (sc), vehicle: steriod suspending solution, higher = larger tumour) is reported as 112 % of control, the T/C (endpoint: mean tumor weight, dose: 80.0 mg/kg/injection, schedule: Q01DX011 (sc), vehicle: steriod suspending solution, higher = larger tumour) is reported as 69 % of control and the T/C (endpoint: mean tumor weight, dose: 120.0 mg/kg/injection, schedule: Q01DX011 (sc), vehicle: steriod suspending solution, higher = larger tumour) is reported as 76 % of control.

With `CC1(C)CCC(NC(=O)N(CCF)N=O)CC1` the T/C (endpoint: median survival time, dose: 6.0 mg/kg/injection, schedule: Q01DX009 (ip), vehicle: saline with Tween-80, higher = longer survival) was 97 % of control, the T/C (endpoint: median survival time, dose: 9.0 mg/kg/injection, schedule: Q01DX009 (ip), vehicle: saline with Tween-80, higher = longer survival) was 113 % of control and the T/C (endpoint: median survival time, dose: 20.0 mg/kg/injection, schedule: Q01DX009 (ip), vehicle: saline with Tween-80, higher = longer survival) was 265 % of control. For the same compound, the T/C (endpoint: median survival time, dose: 30.0 mg/kg/injection, schedule: Q01DX009 (ip), vehicle: saline with Tween-80, higher = longer survival) was 236 % of control and the T/C (endpoint: median survival time, dose: 50.0 mg/kg/injection, schedule: Q01DX009 (ip), vehicle: saline with Tween-80, higher = longer survival) was 88 % of control.
